Results as given in patent US10918645B2 (LIFEARC, priority 2016, dated 2021).

How the values were obtained:
Assay type in all cases: biochemical
Conditions in all cases: 1 μM inhibitor concentration
SRPK1 = SRPK1 (Homo sapiens (Human), UniProt Q96SB4); experiment: SRPK1 kinase selectivity assay
Experimental: 5-20 mU of SRPK1 (diluted in 50 mM Tris (pH 7.5), 0.1 mM EGTA, 1 mg/ml BSA, 0.1%, b-Mercaptoethanol) is assayed against substrate peptide ([…]) in a final volume of […] containing 50 mM Tris (pH 7.5), 0.1 mM EGTA, 0.1%, b-Mercaptoethanol, 300 μM substrate peptide, 10 mM magnesium acetate and 0.05 mM [33P-g-ATP](500-1000 cpm/pmole) and incubated for 30 mins at room temperature. Assays are stopped by addition of 5 μl of 0.5M (3%) orthophosphoric acid. Assays are harvested onto P81 Unifilter plates using a wash buffer of 50 mM orthophosphoric acid.

PHK = PHK kinase selectivity assay
Experimental: […] (5-20 mU diluted in 50 mM Na-b-glycerophosphate pH 7.0, 0.1% b-mercaptoethanol) is assayed against phosphorylase b peptide ([…]) in a final volume of 25.5 μl containing 50 mM Tris pH 8.6, 50 mM Na-b-glycerophosphate, 0.04 mM CaCl2, phosphorylase b peptide (0.196 mM), 10 mM magnesium acetate, 0.02 mM [33P-g-ATP] (500-1000 cpm/pmole) then incubated for 15 min at room temperature. Assays are stopped by addition of 5 μl of 0.5 M (3%) orthophosphoric acid and then harvested onto P81 Unifilter plates with a wash buffer of 50 mM orthophosphoric acid.

TAK1 = TAK1 (Homo sapiens (Human), UniProt O43318); experiment: TAK1 kinase selectivity assay
Chain of TAK1 (O43318 1-303): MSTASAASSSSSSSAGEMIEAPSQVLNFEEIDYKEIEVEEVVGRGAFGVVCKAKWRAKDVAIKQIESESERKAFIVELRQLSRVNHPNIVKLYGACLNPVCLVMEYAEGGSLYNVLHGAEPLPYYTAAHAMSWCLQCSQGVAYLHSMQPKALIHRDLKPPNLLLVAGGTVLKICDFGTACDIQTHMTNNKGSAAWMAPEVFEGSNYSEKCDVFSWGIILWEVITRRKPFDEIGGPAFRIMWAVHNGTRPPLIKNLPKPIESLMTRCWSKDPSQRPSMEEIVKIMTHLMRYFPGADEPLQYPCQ
Experimental: TAK1 (5-20 mU diluted in 50 mM Tris pH 7.5, 0.1 mM EGTA, 1 mg/ml BSA) is assayed against a substrate peptide ([…]) in a final volume of 25.5 μl containing 50 mM Tris pH 7.5, 0.1 mM EGTA, 0.1% β-Mercaptoethanol, 300 μM substrate peptide, 10 mM magnesium acetate, 0.5 mM MnCl and 0.005 mM [33P-γ-ATP](50-1000 cpm/pmole) and incubated for 30 min at room temperature. Assays are stopped by addition of 5 μl of 0.5 M (3%) orthophosphoric acid and then harvested onto P81 Unifilter plates with a wash buffer of 50 mM orthophosphoric acid.

CDK2-CyclinA = CDK2-CyclinA (Homo sapiens (Human), UniProt P24941); experiment: CDK2-CyclinA kinase selectivity assay
Experimental: CDK2/cyclin A (5-20 mU diluted in 50 mM Hepes pH 7.5, 1 mM DTT, 0.02% Brij35, 100 mM NaCl) is assayed against Histone H1 in a final volume of 25.5 μl containing 50 mM Hepes pH7.5, 1 mM DTT, 0.02% Brij35, 100 mM NaCl, Histone H1 (1 mg/ml), 10 mM magnesium acetate and 0.02 mM [33P-g-ATP](500-1000 cpm/pmole) and incubated for 30 min at room temperature. Assays are stopped by addition of 5 μl of 0.5 M (3%) orthophosphoric acid and then harvested onto P81 Unifilter plates with a wash buffer of 50 mM orthophosphoric acid.

FGF-R1 = FGF-R1 (Homo sapiens (Human), UniProt P11362); experiment: FGF-R1 kinase selectivity assay
Chain of FGF-R1 (P11362 22-822, species assumed): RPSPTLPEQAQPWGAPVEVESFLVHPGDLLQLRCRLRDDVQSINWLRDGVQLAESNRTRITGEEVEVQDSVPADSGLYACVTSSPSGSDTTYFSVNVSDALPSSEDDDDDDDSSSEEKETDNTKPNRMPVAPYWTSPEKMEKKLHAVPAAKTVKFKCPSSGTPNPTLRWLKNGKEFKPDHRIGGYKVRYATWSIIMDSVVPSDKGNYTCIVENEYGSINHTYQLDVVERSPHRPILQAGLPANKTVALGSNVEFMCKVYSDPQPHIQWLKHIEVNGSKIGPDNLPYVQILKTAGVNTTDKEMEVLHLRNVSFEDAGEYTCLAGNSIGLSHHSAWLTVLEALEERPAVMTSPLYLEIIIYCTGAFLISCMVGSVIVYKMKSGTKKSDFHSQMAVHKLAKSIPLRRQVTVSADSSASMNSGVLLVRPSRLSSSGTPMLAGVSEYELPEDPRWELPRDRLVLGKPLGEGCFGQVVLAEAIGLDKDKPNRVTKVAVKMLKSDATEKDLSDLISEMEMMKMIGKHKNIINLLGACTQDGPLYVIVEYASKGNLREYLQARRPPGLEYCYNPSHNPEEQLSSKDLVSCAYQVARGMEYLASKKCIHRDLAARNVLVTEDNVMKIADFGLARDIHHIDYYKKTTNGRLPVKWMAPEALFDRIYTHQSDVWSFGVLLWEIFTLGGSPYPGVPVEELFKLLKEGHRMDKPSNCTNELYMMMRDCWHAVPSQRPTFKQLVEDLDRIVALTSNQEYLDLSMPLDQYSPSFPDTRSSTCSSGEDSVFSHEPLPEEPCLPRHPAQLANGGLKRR
Experimental: FGF-R1 (5-20 mU diluted in 50 mM Tris pH 7.5, 0.1 mM EGTA, 1 mg/ml BSA) is assayed against a substrate peptide (Poly Glut Tyr) in a final volume of 25.5 μl containing 50 mM Tris pH 7.5, 1 mg/ml substrate peptide, 10 mM magnesium acetate and 0.02 mM [33P-g-ATP] (50-1000 cpm/pmole) and incubated for 30 min at room temperature. Assays are stopped by addition of 5 μl of 0.5 M (3%) orthophosphoric acid and then harvested onto P81 Unifilter plates with a wash buffer of 50 mM orthophosphoric acid.

ULK1 = ULK1 (Homo sapiens (Human), UniProt O75385); experiment: ULK1 kinase selectivity assay
Chain of ULK1 (O75385 whole entry, species assumed): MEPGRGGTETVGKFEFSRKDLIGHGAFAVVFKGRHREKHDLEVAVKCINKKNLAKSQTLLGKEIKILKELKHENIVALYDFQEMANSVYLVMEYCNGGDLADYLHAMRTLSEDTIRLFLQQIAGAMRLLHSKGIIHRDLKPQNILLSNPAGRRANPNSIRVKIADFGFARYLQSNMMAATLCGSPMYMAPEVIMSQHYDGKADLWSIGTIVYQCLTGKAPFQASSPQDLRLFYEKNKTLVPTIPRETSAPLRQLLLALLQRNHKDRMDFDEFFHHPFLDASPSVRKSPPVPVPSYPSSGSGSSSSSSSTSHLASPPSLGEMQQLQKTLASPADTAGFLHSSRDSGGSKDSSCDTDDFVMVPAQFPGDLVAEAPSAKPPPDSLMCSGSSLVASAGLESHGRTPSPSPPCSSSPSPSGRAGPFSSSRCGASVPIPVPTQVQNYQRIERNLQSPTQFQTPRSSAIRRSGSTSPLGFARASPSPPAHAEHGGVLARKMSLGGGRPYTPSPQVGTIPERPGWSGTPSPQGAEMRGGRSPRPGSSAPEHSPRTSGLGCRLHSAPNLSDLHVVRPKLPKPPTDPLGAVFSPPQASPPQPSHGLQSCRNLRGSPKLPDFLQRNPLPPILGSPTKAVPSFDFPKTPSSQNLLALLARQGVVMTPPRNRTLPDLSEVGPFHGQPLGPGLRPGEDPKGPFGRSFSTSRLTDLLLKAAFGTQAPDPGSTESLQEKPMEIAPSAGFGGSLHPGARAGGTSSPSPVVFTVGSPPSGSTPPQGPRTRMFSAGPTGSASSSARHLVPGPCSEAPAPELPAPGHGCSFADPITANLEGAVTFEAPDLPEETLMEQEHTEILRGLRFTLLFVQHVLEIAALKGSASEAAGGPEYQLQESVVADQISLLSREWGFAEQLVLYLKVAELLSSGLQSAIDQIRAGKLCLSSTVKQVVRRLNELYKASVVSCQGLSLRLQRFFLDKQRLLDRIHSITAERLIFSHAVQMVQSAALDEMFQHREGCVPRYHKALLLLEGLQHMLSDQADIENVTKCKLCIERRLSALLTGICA

MNK1 = MNK1 (Homo sapiens (Human), UniProt Q9BUB5); experiment: MNK1 kinase selectivity assay
Chain of MNK1 (Q9BUB5 whole entry, species assumed): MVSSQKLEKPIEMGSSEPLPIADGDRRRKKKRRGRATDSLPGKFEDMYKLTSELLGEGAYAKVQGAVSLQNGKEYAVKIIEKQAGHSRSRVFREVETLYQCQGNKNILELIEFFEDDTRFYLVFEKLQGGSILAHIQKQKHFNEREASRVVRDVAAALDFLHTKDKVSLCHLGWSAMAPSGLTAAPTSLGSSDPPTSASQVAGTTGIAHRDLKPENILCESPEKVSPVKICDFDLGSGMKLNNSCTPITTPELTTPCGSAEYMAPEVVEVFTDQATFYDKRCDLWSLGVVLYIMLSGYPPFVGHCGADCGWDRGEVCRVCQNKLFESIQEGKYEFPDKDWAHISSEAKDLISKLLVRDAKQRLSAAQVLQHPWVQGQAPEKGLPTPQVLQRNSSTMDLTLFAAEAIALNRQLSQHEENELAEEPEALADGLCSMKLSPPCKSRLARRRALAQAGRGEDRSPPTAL
Experimental: 5-20 mU of MNK1 (diluted in 50 mM Tris (pH 7.5), 0.1 mM EGTA, 1 mg/ml BSA, 0.1%, b-Mercaptoethanol) is assayed against substrate peptide (eIF4E) in a final volume of 25.5p1 containing 50 mM Tris (pH 7.5), 0.1 mM EGTA, 0.1%, b-Mercaptoethanol, 0.5 mg/ml substrate peptide, 10 mM magnesium acetate and 0.05 mM [33P-g-ATP](500-1000 cpm/pmole) and incubated for 30 mins at room temperature. Assays are stopped by addition of 5p1 of 0.5M (3%) orthophosphoric acid. Assays are harvested onto P81 Unifilter plates using a wash buffer of 50 mM orthophosphoric acid.

ULK2 = ULK2 (Homo sapiens (Human), UniProt Q8IYT8); experiment: ULK2 kinase selectivity assay
JNK2 = JNK2 (Homo sapiens (Human), UniProt P45984); experiment: JNK2 kinase selectivity assay
Chain of JNK2 (P45984 whole entry, species assumed): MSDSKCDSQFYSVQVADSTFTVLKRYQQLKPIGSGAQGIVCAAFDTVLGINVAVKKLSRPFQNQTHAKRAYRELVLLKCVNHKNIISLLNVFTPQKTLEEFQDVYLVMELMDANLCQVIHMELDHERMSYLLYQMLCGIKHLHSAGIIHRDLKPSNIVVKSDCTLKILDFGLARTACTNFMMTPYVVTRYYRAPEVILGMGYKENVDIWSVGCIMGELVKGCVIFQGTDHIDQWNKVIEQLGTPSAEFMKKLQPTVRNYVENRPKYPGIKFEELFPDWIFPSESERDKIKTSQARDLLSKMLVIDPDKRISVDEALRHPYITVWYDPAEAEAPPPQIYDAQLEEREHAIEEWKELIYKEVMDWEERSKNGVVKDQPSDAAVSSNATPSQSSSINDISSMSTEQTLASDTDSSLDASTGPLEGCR
Experimental: (§1) JNK2 1(5-20 mU diluted in 50 mM Tris (pH 7.5), 0.1 mM EGTA, 1 mg/ml BSA, 0.1% b-mercaptoethanol) is assayed against ATF2 (activating transcription factor in a final volume of 25.5 μl in 50 mM Tris pH 7.5, 0.1 mM EGTA, 0.1% b-Mercaptoethanol, ATF2 (3 μM), 10 mM magnesium acetate and 0.02 mM [33P-g-ATP] (500-1000 cpm/pmole) and incubated for 30 min at room temperature. Assays are stopped by addition of 5 μl of 0.5 M (3%) orthophosphoric acid and then harvested onto P81 Unifilter plates with a wash buffer of 50 mM orthophosphoric acid.

JNK1 = JNK1 (Homo sapiens (Human), UniProt P45983); experiment: JNK1 kinase selectivity assay
Chain of JNK1 (P45983 other isoform, or with tags, fused parts or gaps, species assumed): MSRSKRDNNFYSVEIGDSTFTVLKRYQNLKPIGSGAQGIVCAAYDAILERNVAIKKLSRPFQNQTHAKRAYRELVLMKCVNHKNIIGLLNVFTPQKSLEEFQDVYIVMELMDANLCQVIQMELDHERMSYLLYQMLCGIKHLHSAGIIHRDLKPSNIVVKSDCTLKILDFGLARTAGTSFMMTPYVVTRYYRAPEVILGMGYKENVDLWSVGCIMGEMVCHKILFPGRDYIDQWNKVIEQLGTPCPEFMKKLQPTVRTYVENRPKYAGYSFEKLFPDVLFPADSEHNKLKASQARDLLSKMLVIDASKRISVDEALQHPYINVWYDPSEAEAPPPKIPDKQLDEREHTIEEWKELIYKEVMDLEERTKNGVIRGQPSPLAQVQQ
Experimental: as §1, with “JNK1a1/SAPK1c (5-20” for “JNK2 1(5-20”, “pH 7.5,” for “(pH 7.5),”

Chain of SRPK1 (Q96SB4 whole entry, species assumed): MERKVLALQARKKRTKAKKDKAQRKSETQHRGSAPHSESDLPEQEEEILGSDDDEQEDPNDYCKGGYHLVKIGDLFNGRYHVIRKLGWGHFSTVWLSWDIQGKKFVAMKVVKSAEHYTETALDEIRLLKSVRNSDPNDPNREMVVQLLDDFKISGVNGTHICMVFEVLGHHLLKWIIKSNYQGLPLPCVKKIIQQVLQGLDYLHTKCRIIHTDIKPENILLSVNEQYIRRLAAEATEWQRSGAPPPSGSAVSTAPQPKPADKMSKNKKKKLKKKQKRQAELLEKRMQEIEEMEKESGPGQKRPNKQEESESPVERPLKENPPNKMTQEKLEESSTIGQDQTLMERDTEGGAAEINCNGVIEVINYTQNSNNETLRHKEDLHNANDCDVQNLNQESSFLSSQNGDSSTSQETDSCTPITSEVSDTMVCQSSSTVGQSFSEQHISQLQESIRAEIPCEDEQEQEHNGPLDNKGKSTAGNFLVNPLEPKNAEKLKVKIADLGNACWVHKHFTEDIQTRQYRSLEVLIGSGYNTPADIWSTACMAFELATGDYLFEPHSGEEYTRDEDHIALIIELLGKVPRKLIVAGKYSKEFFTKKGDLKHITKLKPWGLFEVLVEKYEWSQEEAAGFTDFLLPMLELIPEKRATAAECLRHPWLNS

Compound | percentage inhibition of SRPK1 (SRPK1) | percentage inhibition of PHK (PHK) | percentage inhibition of TAK1 (TAK1) | percentage inhibition of CDK2-CyclinA (CDK2-CyclinA) | percentage inhibition of FGF-R1 (FGF-R1) | percentage inhibition of ULK1 (ULK1) | percentage inhibition of MNK1 (MNK1) | percentage inhibition of ULK2 (ULK2) | percentage inhibition of JNK2 (JNK2) | percentage inhibition of JNK1 (JNK1)
c1cc2[nH]nc3c2c(n1)N(C1CCOCC1)CCC3 [Example 29, 6-(tetrahydro-2H-pyran-4-yl)-6,7,8,9-tetrahydro-2H-1,2,5,6-tetraazabenzo[cd]azulene] | 0 percentage | 35 percentage | 65 percentage | 30 percentage | 12 percentage | 5 percentage | 0 percentage | 7 percentage | 0 percentage | 0 percentage
c1cc2[nH]nc3c2c(n1)N(C1CCC1)CCC3 [Example 22, 6-cyclobutyl-6,7,8,9-tetrahydro-2H-1,2,5,6-tetraazabenzo[cd]azulene] | 0 percentage | 41 percentage | 64 percentage | 16 percentage | 11 percentage | 14 percentage | 0 percentage | 12 percentage | 1 percentage | 0 percentage
CN1CCC(N2Cc3ccccc3-c3n[nH]c4ccnc2c34)CC1 [Example 55] | 0 percentage | 73 percentage | 64 percentage | 10 percentage | 9 percentage | 20 percentage | 50 percentage | 31 percentage | 41 percentage | 49 percentage
CC(C)n1ncc2c1CN(C1CCN(C)CC1)c1nccc3[nH]nc-2c13 [Example 68] | 0 percentage | 43 percentage | 36 percentage | 0 percentage | 35 percentage | 30 percentage | 1 percentage | 10 percentage | 37 percentage | 48 percentage
c1cc2[nH]nc3c2c(n1)N(C1CCCC1)CCC3 [Example 23, 6-cyclopentyl-6,7,8,9-tetrahydro-2H-1,2,5,6-tetraazabenzo[cd]azulene] | 0 percentage | – | 49 percentage | 0 percentage | 19 percentage | 0 percentage | 0 percentage | 1 percentage | 0 percentage | 0 percentage
